pKi: −log10 of the molar value.
Experiments:
[1] = target: T1, D(3) dopamine receptor (Homo sapiens, UniProt P35462); test: Displacement of [3H]domperidone from human cloned dopamine D3 receptor expressed in mouse CCL1-3 cells by scintillation counting; format: cell-based
[2] = target: T2, D(1A) dopamine receptor (Rattus norvegicus, UniProt P18901); test: Binding affinity to dopamine D1 receptor low binding site by radioligand displacement assay
[3] = target: T1, D(3) dopamine receptor; test: Displacement of [3H]domperidone from human cloned dopamine D3 receptor high binding site expressed in mouse CCL1-3 cells by scintillation counting; format: cell-based
[4] = target: T2, D(1A) dopamine receptor; test: Binding affinity to dopamine D1 receptor high binding site by radioligand displacement assay
[5] = target: D(2) dopamine receptor (Rattus norvegicus, UniProt P61169); test: Displacement of [3H]domperidone from dopamine D2 receptor low binding site in Sprague-Dawley rat striatum by scintillation counting
[6] = target: T1, D(3) dopamine receptor; test: Displacement of [3H]domperidone from human dopamine D3 receptor expressed in human HEK293 cells by scintillation counting; format: cell-based

T2 sequence (P18901 whole entry): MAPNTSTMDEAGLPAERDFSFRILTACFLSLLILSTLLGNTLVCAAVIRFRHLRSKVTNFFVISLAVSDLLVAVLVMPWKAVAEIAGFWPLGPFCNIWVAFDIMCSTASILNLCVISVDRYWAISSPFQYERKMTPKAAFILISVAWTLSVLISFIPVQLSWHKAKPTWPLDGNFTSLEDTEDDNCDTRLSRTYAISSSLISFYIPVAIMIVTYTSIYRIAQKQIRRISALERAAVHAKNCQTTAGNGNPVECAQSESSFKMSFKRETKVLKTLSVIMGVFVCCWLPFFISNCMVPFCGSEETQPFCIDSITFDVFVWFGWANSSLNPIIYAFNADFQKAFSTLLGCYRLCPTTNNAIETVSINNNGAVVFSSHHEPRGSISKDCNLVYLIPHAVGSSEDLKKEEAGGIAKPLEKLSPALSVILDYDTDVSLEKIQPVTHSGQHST
T1 sequence (P35462 whole entry): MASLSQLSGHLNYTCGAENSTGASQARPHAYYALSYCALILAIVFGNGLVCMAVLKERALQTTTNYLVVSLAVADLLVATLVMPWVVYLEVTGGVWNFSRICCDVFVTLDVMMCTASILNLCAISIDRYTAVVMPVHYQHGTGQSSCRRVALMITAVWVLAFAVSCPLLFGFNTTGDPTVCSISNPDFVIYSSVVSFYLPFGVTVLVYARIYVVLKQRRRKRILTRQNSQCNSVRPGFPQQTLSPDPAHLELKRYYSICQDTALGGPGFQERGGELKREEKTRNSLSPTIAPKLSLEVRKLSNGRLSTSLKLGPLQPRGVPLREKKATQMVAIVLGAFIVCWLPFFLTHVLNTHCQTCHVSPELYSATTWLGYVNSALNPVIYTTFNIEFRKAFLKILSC
D(2) dopamine receptor, sequence (P61169 whole entry): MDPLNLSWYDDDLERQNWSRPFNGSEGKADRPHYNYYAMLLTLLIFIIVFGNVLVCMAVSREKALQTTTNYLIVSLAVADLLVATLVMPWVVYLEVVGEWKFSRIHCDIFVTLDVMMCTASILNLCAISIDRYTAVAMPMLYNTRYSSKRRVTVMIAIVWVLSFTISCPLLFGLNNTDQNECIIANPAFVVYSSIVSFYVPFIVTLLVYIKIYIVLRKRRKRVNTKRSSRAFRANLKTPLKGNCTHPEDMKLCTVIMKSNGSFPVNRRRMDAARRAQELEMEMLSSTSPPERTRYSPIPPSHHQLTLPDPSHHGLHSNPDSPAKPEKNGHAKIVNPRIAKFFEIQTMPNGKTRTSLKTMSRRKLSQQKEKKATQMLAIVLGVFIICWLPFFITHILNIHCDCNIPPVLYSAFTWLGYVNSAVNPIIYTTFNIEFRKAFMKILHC

Compound | pKi [1] | pKi [2] | pKi [3] | Ki [4] | pKi [5] | pKi [6]
CCCN1CCc2cc(F)cc3c2[C@H]1Cc1ccc(O)c(O)c1-3 | < 5.00 | < 5.30 | 8.42 | Not Active |  | 
Oc1cccc2c1-c1cccc3c1[C@@H](C2)N(CCCF)CC3 |  | < 5.30 |  | Not Active |  | 
CCCN1CCc2cc(OCCCF)cc3c2[C@H]1Cc1ccc(O)c(O)c1-3 |  | < 5.30 | 8.96 | Not Active |  | 
CCCN1CCc2cc(OCCF)cc3c2[C@H]1Cc1ccc(O)c(O)c1-3 |  | < 5.30 | 8.72 | Not Active |  | 
CCN1CCc2cc(OCCCF)cc3c2[C@H]1Cc1ccc(O)c(O)c1-3 | < 5.00 | < 5.30 | 6.64 | Not Active |  | 
CCN1CCc2cc(OCCF)cc3c2[C@H]1Cc1ccc(O)c(O)c1-3 | < 5.00 | < 5.30 | 6.60 | Not Active |  | 
CN1CCc2cc(OCCCF)cc3c2[C@H]1Cc1ccc(O)c(O)c1-3 | < 5.00 | < 5.30 |  | Not Active | < 5.00 | 
CN1CCc2cc(OCCF)cc3c2[C@H]1Cc1ccc(O)c(O)c1-3 | < 5.00 | 5.43 |  | Not Active |  | 
CCCN1CCc2cc(OCCCF)cc3c2[C@H]1Cc1cccc(O)c1-3 |  | < 5.30 |  | Not Active |  | 
CCCN1CCc2cc(OCCF)cc3c2[C@H]1Cc1cccc(O)c1-3 |  | < 5.30 |  | Not Active |  | 
CCN1CCc2cc(OCCCF)cc3c2[C@H]1Cc1cccc(O)c1-3 |  | < 5.30 |  | Not Active |  | 
CCN1CCc2cc(OCCF)cc3c2[C@H]1Cc1cccc(O)c1-3 |  | < 5.30 |  | Not Active |  | 
CN1CCc2cc(OCCF)cc3c2[C@H]1Cc1cccc(O)c1-3 |  |  |  | Not Active |  | 
CCCN1CCc2cccc3c2[C@H]1Cc1cccc(O)c1-3 |  |  | 8.92 | Not Active |  | 
CCCN1CCc2cc(OC)cc3c2[C@H]1Cc1cccc(O)c1-3 | < 5.00 |  | 6.89 | Not Active |  | 
CCCN1CCc2cc(OC)cc3c2[C@H]1Cc1ccc(O)c(O)c1-3 |  | < 5.30 |  |  |  | 8.99
